Results on nine molecules are retold here after patent US10745400B2, “Inhibition of BMP signaling, compounds, compositions and uses thereof” (Vanderbilt University, priority 2018, dated 2020).

Data set [1] concerns BMP-responsive C2C12 mouse myoblast cells stimulated with BMP4. In words: BMP4 cell assay (Id1 promoter-firefly luciferase reporter). The conditions noted are these: Mus musculus, C2C12, C2C12 cells, BMP4 50 ng/mL, overnight. It counts as cell-based. As to the method:
The BMP4 cell assay were carried out briefly as follows. Stably transfected BMP-responsive C2C12 mouse myoblast cells (containing the Idl promoter-firefly luciferase reporter) were seeded in 96-well plates and incubated overnight with the compounds and BMP4 (50 ng/mL). The cells were then lysed, and cell extracts were then subjected to the firefly luciferase assay using Steady-Glo luciferase assay kit (Promega). The results were normalized to cell titers, as measured using Cell Titer-Glo luminescence assay (Promega). […] Relative activity was quantified by the ratio of firefly to Renilla luciferase activities using the dual luciferase assay kit (Promega).
Background: In a reporter assay the amount or activity of a reporter protein is the signal.

Data set [2] in a line: Intrinsic clearance, mouse. Format: in vitro ADME. The conditions noted are these: mouse.
Another data set in a line: Protein binding, mouse. It counts as in vitro ADME.
Another data set is described as follows: Protein binding, human. It counts as in vitro ADME.
Data set [3] can be described thus: Intrinsic clearance, human. Format: in vitro ADME. The note with it: human.
The target in another data set is T1, ALK2 (Q207D) (Homo sapiens, UniProt Q04771, Q207D).
T1 sequence (Q04771 21-509 Q207D): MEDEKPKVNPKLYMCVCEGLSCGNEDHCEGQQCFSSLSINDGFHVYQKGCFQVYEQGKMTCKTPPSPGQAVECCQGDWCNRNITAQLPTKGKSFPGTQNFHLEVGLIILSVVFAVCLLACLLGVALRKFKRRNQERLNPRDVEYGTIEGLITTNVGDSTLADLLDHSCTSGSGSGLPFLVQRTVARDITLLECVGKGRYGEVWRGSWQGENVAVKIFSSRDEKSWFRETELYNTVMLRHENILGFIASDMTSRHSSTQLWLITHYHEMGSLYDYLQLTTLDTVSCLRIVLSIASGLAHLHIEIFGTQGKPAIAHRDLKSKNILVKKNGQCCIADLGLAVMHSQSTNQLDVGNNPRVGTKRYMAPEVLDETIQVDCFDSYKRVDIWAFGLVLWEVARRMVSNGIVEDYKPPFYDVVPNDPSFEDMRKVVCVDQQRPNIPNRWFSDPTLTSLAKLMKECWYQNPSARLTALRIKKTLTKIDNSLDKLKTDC
The data set can be described thus: Kinase assay (33P-ATP filter-binding), ALK2 Q207D. Format: biochemical. The note with it: Q207D mutant, 20 mM; read-out: Kinase Selectivity ALK2 (Q207D, 20 mM). On the procedure:
(§1) The kinase assays were carried out briefly as follows. Substrate was prepared in Base Reaction Buffer (20 mM Hepes (pH 7.5), 10 mM MgCl2, 1 mM EGTA, 0.02% Brij35, 0.02 mg/ml BSA, 0.1 mM Na3VO4, 2 mM DTT, 1% DMSO). The indicated kinases was delivered into the substrate solution and allowed to gently mix. Next, the specific compound was delivered in DMSO into the kinase mixture by Acoustic technology (Echo550; nanoliter range), and allowed to incubate for 20 minutes at room temperature. Next, ^33P-ATP was delivered into the reaction mixture to initiate the reaction and allowed to incubate at room temperature. After 2 hours, the reactions were spotted onto P81 ion exchange paper and the kinase activity is detected by the filter-binding method.

The target of a further data set is ALK1/ACVRL1 (Homo sapiens, UniProt P37023). The data set can be described thus: Kinase assay (33P-ATP filter-binding), ALK1. Format: biochemical. The conditions noted are these: read-out: Kinase Selectivity ALK1/ACVRL1. As to the method:
as §1

The next data set has as its target T2, ALK2 (R206H) (Homo sapiens, UniProt Q04771, R206H).
T2 sequence (Q04771 21-509 R206H): T1 sequence (Q04771 21-509 Q207D) with R186H, D187Q
In words: Kinase assay (33P-ATP filter-binding), ALK2 R206H. It counts as biochemical. The conditions noted are these: R206H mutant, 20 mM; read-out: Kinase Selectivity ALK2 (R206H, 20 mM). As to the method: as §1

The next data set has as its target T3, ALK2/ACVR1 (Homo sapiens, UniProt Q04771).
T3 sequence (Q04771 21-509): T1 sequence (Q04771 21-509 Q207D) with D187Q
The data set can be described thus: Kinase assay (33P-ATP filter-binding), ALK2. Format: biochemical. The note with it: 20 mM; read-out: Kinase Selectivity ALK2/ACVR1 (20 mM). On the procedure: as §1

A further data set deals with ALK3/BMPR1A (Homo sapiens, UniProt P36894). In words: Kinase assay (33P-ATP filter-binding), ALK3. Format: biochemical. The conditions noted are these: 1 mM; read-out: Kinase Selectivity ALK3/BMPR1A (1 mM). As to the method: as §1
Sequence of ALK3/BMPR1A (P36894 24-532): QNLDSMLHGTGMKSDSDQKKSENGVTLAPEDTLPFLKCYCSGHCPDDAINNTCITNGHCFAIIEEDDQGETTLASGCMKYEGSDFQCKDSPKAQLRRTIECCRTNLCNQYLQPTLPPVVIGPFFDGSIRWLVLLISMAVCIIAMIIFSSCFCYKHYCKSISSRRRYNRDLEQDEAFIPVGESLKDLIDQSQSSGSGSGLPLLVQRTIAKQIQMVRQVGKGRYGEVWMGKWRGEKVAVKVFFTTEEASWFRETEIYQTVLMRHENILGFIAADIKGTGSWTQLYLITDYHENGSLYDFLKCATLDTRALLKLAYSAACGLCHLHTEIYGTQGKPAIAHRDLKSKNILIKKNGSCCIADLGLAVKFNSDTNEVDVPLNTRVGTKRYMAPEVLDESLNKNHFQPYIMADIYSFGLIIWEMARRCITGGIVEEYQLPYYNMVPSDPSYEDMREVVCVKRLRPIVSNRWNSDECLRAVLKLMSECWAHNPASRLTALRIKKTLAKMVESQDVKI
Setting [4] is: CL-Hep, value in parentheses, read-out: Intrinsic Clearance Mouse (CL-Hep).
[5] abbreviates: read-out: Intrinsic Clearance Mouse.
The mark [6] stands for this setting: CL-Hep, value in parentheses, read-out: Intrinsic Clearance Human (CL-Hep).
Where [7] appears, read: read-out: Intrinsic Clearance Human.

Substitutions are numbered along the chain they refer to. Some results are limits rather than exact numbers.

Sequence of ALK1/ACVRL1 (P37023 22-503): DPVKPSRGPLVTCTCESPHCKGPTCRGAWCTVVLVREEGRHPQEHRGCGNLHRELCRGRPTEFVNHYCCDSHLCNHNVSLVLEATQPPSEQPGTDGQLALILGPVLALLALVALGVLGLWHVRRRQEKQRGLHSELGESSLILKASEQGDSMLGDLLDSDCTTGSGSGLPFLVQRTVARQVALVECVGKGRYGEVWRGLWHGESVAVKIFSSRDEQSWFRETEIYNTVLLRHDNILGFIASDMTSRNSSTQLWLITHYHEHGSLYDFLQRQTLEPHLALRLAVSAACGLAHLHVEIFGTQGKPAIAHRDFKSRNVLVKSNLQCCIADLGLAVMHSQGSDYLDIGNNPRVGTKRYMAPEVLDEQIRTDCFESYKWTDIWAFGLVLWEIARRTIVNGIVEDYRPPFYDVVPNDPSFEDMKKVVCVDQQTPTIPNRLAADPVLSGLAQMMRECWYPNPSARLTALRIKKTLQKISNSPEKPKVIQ

Take `Cc1cc(-c2cnc3cc(-c4ccc(C5CNCCN5)cc4)ccn23)c2ccccc2n1` (centres unmarked) [Compound 12]: the IC50 in data set [1] amounted to 13.5 nM. In addition, the CLint scaled in data set [2] (setting [4]) was less than 32.9 mL/min/kg; in data set [2] (setting [5]), less than 49.5 mL/min/kg; in [3] (setting [6]), less than 10.7 mL/min/kg; in data set [3] (setting [7]) it was less than 23.1 mL/min/kg. Also, the “Protein Binding (% Free) Mouse” value in “Protein binding, mouse” was found to be 4.94 % Free. The “Protein Binding (% Free) Human” value in the data set “Protein binding, human” was 13.6 % Free.

Regarding `Cc1cc(-c2cnc3cc(-c4ccc(C5COC(C)CN5)cc4)ccn23)c2cc(F)ccc2n1` (centres unmarked) [Compound 15], the IC50 was less than 5.1 nM on ALK2 (Q207D); 34.1 nM on ALK1/ACVRL1; less than 5.1 nM on ALK2 (R206H); less than 5.1 nM at ALK2/ACVR1; less than 5.1 nM on ALK3/BMPR1A. Also, the CLint scaled in [2] (setting [4]) came out at 38.1 mL/min/kg; in [2] (setting [5]) it was 66.3 mL/min/kg; in data set [3] (setting [6]) it was 15.7 mL/min/kg; in data set [3] (setting [7]), 74 mL/min/kg. In addition, the “Protein Binding (% Free) Mouse” value in “Protein binding, mouse” worked out at 1.01 % Free. The “Protein Binding (% Free) Human” value in “Protein binding, human” amounted to 1.26 % Free.

For the molecule `Cc1cc(-c2cnc3cc(-c4ccc(C5COC(C)CN5)cc4)ccn23)c2cc(F)cc(F)c2n1` (centres unmarked) [Compound 19], the IC50 at ALK2 (Q207D) was less than 5.1 nM; on ALK1/ACVRL1 it was 14.1 nM; at ALK2 (R206H), less than 5.1 nM; on ALK2/ACVR1 it was less than 5.1 nM; at ALK3/BMPR1A it was less than 5.1 nM. Also, the CLint scaled in data set [2] (setting [4]) amounted to 53.3 mL/min/kg; in data set [2] (setting [5]), 131 mL/min/kg; in data set [3] (setting [6]) it was 15.9 mL/min/kg; in [3] (setting [7]), 77.2 mL/min/kg. In “Protein binding, mouse”, the “Protein Binding (% Free) Mouse” value worked out at 3.15 % Free. Also, the “Protein Binding (% Free) Human” value in the data set “Protein binding, human” is 3.74 % Free.

Take `Cc1cc(-c2cnc3cc(-c4ccc(C5COCC(C)N5)cc4)ccn23)c2cc(F)ccc2n1` (centres unmarked) [Compound 20]: the IC50 was less than 5.1 nM on ALK2 (Q207D); 23 nM at ALK1/ACVRL1; less than 5.1 nM on ALK2 (R206H); less than 5.1 nM on ALK2/ACVR1; less than 5.1 nM on ALK3/BMPR1A. In addition, the CLint scaled in [2] (setting [4]) is 50.2 mL/min/kg; in data set [2] (setting [5]) it was 114 mL/min/kg; in data set [3] (setting [6]), 17.1 mL/min/kg; in [3] (setting [7]), 117 mL/min/kg. Further, the “Protein Binding (% Free) Mouse” value in the data set “Protein binding, mouse” was determined as 1.36 % Free. Moreover, the “Protein Binding (% Free) Human” value in the data set “Protein binding, human” was found to be 4.01 % Free.

Turning to `Cc1cc(-c2cnc3cc(N4CC5(CCNCC5)C4)ccn23)c2cc(F)cc(F)c2n1` [Compound 24], the IC50 came to 129 nM on ALK2 (Q207D); 1250 nM at ALK1/ACVRL1; 58.3 nM on ALK2 (R206H); 57.8 nM at ALK2/ACVR1; 5.2 nM at ALK3/BMPR1A. In addition, the CLint scaled in data set [2] (setting [4]) is less than 32.9 mL/min/kg; in data set [2] (setting [5]), less than 49.5 mL/min/kg; in data set [3] (setting [6]) it was 14 mL/min/kg; in [3] (setting [7]) it was 46.3 mL/min/kg. The “Protein Binding (% Free) Mouse” value in the data set “Protein binding, mouse” turned out to be 1.08 % Free. Further, the “Protein Binding (% Free) Human” value in the data set “Protein binding, human” was determined as 0.75 % Free.

`Cc1cc(-c2cnc3cc(-c4ccc(N5CCC6(CCCCN6)CC5)cc4)ccn23)c2cc(F)cc(F)c2n1` [Compound 25]: the IC50 at ALK2 (Q207D) is 170 nM; on ALK1/ACVRL1 it was 777 nM; on ALK2 (R206H) it was 258 nM; on ALK2/ACVR1, 55.5 nM; at ALK3/BMPR1A, 54.7 nM. In addition, the CLint scaled in data set [2] (setting [4]) is 97.8 mL/min/kg; in [2] (setting [5]), 198 mL/min/kg; in data set [3] (setting [6]) it was 14 mL/min/kg; in data set [3] (setting [7]), 46.3 mL/min/kg. Moreover, the “Protein Binding (% Free) Mouse” value in “Protein binding, mouse” is listed as 0.55 % Free. Further, the “Protein Binding (% Free) Human” value in “Protein binding, human” was found to be 1.43 % Free.

`Cc1cc(-c2cnc3cc(-c4ccc(N5CCNC(C)(C)C5)cc4)ccn23)c2cc(F)cc(F)c2n1` [Compound 26]: the IC50 was found to be 69.7 nM on ALK2 (Q207D); 330 nM on ALK1/ACVRL1; 79.3 nM at ALK2 (R206H); 14.9 nM at ALK2/ACVR1; 5.7 nM on ALK3/BMPR1A. For the same molecule, the CLint scaled in data set [2] (setting [4]) was 47.1 mL/min/kg; in data set [2] (setting [5]) it was 99 mL/min/kg; in data set [3] (setting [6]) it was less than 10.7 mL/min/kg; in [3] (setting [7]), less than 23.1 mL/min/kg. In “Protein binding, mouse”, the “Protein Binding (% Free) Mouse” value worked out at 1.03 % Free. Besides, in the data set “Protein binding, human”, the “Protein Binding (% Free) Human” value stood at 0.61 % Free.

Regarding `c1cnc2scc(-c3cnc4cc(-c5ccc(C6CNCCN6)cc5)ccn34)c2c1` (centres unmarked) [Compound 31], the IC50 was less than 5.1 nM on ALK2 (Q207D); 30.7 nM on ALK1/ACVRL1; 20.6 nM at ALK2 (R206H); 20.1 nM on ALK2/ACVR1; 21.2 nM on ALK3/BMPR1A. Moreover, the CLint scaled in [2] (setting [4]) was 33.6 mL/min/kg; in data set [2] (setting [5]) it was 53.5 mL/min/kg; in data set [3] (setting [6]), less than 11 mL/min/kg; in data set [3] (setting [7]) it was less than 23.1 mL/min/kg. Also, the “Protein Binding (% Free) Mouse” value in the data set “Protein binding, mouse” was 6.8 % Free. Moreover, the “Protein Binding (% Free) Human” value in the data set “Protein binding, human” amounted to 16.2 % Free.

For the molecule `c1cnc2c(-c3cnc4cc(-c5ccc(C6CNCCN6)cc5)ccn34)ccnc2c1` (centres unmarked) [Compound 34], the IC50 on ALK2 (Q207D) was less than 5.1 nM; on ALK1/ACVRL1 it was 16.9 nM; at ALK2 (R206H), 7.5 nM; at ALK2/ACVR1 it was 6.2 nM; at ALK3/BMPR1A it was less than 5.1 nM. The CLint scaled in data set [2] (setting [4]) was less than 31.9 mL/min/kg; in data set [2] (setting [5]), less than 49.5 mL/min/kg; in data set [3] (setting [6]) it was 12.3 mL/min/kg; in [3] (setting [7]) it was 29.6 mL/min/kg. For the same molecule, the “Protein Binding (% Free) Mouse” value in “Protein binding, mouse” worked out at 21.2 % Free. For the same molecule, the “Protein Binding (% Free) Human” value in the data set “Protein binding, human” stood at 39.4 % Free.
